{"source": "ChEMBL document CHEMBL1130057", "about": "“Tyrosine kinase inhibitors. 12. Synthesis and structure-activity relationships for 6-substituted 4-(phenylamino)pyrimido[5,4-d]pyrimidines designed as inhibitors of the epidermal growth factor receptor” (J Med Chem, 1997)", "key": {"[1]": {"target": "T1, Epidermal growth factor receptor (Homo sapiens, UniProt P00533)", "T1 sequence (P00533 whole entry)": "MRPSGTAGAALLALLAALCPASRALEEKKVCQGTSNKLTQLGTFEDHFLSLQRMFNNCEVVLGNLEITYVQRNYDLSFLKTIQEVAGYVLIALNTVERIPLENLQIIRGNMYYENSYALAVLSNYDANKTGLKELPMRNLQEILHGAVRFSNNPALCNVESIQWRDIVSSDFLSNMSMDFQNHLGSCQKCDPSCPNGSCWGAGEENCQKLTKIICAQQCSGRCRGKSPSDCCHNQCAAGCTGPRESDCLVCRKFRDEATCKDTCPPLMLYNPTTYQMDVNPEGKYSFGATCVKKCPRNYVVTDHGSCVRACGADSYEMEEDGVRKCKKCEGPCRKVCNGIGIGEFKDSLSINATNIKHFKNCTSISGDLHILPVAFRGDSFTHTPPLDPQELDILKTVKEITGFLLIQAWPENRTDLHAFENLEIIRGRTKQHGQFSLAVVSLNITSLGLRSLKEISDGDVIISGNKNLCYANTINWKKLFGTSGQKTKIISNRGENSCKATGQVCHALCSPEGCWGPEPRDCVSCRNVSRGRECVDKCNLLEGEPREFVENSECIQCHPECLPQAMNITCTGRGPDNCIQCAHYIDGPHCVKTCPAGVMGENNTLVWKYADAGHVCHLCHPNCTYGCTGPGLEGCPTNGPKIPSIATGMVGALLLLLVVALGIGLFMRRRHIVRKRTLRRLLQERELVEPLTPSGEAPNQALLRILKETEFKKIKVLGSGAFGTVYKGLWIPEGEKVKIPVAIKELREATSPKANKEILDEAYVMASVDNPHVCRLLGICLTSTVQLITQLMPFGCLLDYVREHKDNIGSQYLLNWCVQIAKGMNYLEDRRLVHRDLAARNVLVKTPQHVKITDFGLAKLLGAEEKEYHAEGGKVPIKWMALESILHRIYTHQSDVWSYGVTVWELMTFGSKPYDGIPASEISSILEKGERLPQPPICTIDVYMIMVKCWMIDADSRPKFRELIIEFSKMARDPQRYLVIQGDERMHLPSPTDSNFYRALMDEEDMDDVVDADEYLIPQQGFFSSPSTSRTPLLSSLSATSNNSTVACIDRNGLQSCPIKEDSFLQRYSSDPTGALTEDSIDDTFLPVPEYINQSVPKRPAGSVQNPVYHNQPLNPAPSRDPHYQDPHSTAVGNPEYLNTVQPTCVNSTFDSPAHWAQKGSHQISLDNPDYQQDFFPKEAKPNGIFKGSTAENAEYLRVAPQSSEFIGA", "experiment": "Tested for ability to inhibit autophosphorylation of the Epidermal growth factor receptor in human epidermoid carcinoma cells"}, "[2]": {"target": "T1, Epidermal growth factor receptor", "experiment": "Inhibition of phosphorylation of phospholipase C gamma1 by Epidermal growth factor receptor, from human A431 carcinoma cell vesicles"}, "[3]": {"target": "T1, Epidermal growth factor receptor", "experiment": "Tested for inhibition of PLC gamma-derived substrate in Epidermal growth factor receptor stimulated A431 cells"}, "[4]": {"target": "T1, Epidermal growth factor receptor", "experiment": "Tested for inhibition of autophosphorylation in Epidermal growth factor receptor stimulated A431 cells"}}, "data": [{"smiles": "Brc1cccc(Nc2ncnc3cnc(NCCN4CCOCC4)nc23)c1", "values": [{"measurement": "IC50", "setting": "[1]", "result": 3.1, "unit": "nM"}, {"measurement": "IC50", "setting": "[2]", "result": 0.81, "unit": "nM"}]}, {"smiles": "Cc1cccc(Nc2ncnc3cnc(N)nc23)c1", "values": [{"measurement": "IC50", "setting": "[2]", "result": 17, "unit": "nM"}]}, {"smiles": "CNc1ncc2ncnc(Nc3cccc(Br)c3)c2n1", "values": [{"measurement": "IC50", "setting": "[1]", "result": 30, "unit": "nM"}, {"measurement": "IC50", "setting": "[2]", "result": 0.76, "unit": "nM"}]}, {"smiles": "Cc1cccc(Nc2ncnc3cnc(NCCN4CCOCC4)nc23)c1", "values": [{"measurement": "IC50", "setting": "[2]", "result": 2.3, "unit": "nM"}]}, {"smiles": "Cc1cccc(Nc2ncnc3cnc(NCCc4c[nH]cn4)nc23)c1", "values": [{"measurement": "IC50", "setting": "[2]", "result": 3, "unit": "nM"}]}, {"smiles": "Clc1ncc2ncnc(Nc3ccccc3)c2n1", "values": [{"measurement": "IC50", "setting": "[2]", "result": 2550, "unit": "nM"}]}, {"smiles": "CNc1ccc2ncnc(Nc3cccc(Br)c3)c2c1", "values": [{"measurement": "IC50", "setting": "[3]", "result": 11, "unit": "nM"}]}, {"smiles": "Brc1cccc(Nc2ncnc3cnc(NCCCn4ccnc4)nc23)c1", "values": [{"measurement": "IC50", "setting": "[2]", "result": 2.3, "unit": "nM"}]}, {"smiles": "COc1ncc2ncnc(Nc3cccc(Br)c3)c2n1", "values": [{"measurement": "IC50", "setting": "[2]", "result": 3.8, "unit": "nM"}]}, {"smiles": "Cc1cccc(Nc2ncnc3cnc(Cl)nc23)c1", "values": [{"measurement": "IC50", "setting": "[2]", "result": 380, "unit": "nM"}]}, {"smiles": "Cc1cccc(Nc2ncnc3cnc(N(C)C)nc23)c1", "values": [{"measurement": "IC50", "setting": "[2]", "result": 4, "unit": "nM"}]}, {"smiles": "CNc1ncc2ncnc(Nc3ccccc3)c2n1", "values": [{"measurement": "IC50", "setting": "[2]", "result": 13, "unit": "nM"}]}, {"smiles": "Clc1ncc2ncnc(Nc3cccc(Br)c3)c2n1", "values": [{"measurement": "IC50", "setting": "[2]", "result": 82, "unit": "nM"}]}, {"smiles": "Brc1cccc(Nc2ncnc3cnc(NCCc4c[nH]cn4)nc23)c1", "values": [{"measurement": "IC50", "setting": "[1]", "result": 5.1, "unit": "nM"}, {"measurement": "IC50", "setting": "[2]", "result": 0.25, "unit": "nM"}]}, {"smiles": "CN(C)c1cc2c(Nc3cccc(Br)c3)ncnc2cn1", "values": [{"measurement": "IC50", "setting": "[3]", "result": 2.6, "unit": "nM"}, {"measurement": "IC50", "setting": "[4]", "result": 12, "unit": "nM"}]}, {"smiles": "Nc1ncc2ncnc(Nc3cccc(Br)c3)c2n1", "values": [{"measurement": "IC50", "setting": "[2]", "result": 1.5, "unit": "nM"}]}, {"smiles": "CN(C)CCNc1ncc2ncnc(Nc3cccc(Br)c3)c2n1", "values": [{"measurement": "IC50", "setting": "[2]", "result": 35, "unit": "nM"}]}]}
